Structures are written as SMILES.

Usually Ki stands for the equilibrium dissociation constant of an inhibitor or competing ligand from its target. In general, IC50 refers to the concentration that inhibits the measured activity by half. A high value points to weaker potency.

Holding throughout (type): biochemical
Assay [1] concerns the target T1, purified recombinant rat FAAH (Rattus norvegicus, UniProt P97612).
T1 construct: made in house; host or cells: E. coli
T1 sequence (P97612 1-579): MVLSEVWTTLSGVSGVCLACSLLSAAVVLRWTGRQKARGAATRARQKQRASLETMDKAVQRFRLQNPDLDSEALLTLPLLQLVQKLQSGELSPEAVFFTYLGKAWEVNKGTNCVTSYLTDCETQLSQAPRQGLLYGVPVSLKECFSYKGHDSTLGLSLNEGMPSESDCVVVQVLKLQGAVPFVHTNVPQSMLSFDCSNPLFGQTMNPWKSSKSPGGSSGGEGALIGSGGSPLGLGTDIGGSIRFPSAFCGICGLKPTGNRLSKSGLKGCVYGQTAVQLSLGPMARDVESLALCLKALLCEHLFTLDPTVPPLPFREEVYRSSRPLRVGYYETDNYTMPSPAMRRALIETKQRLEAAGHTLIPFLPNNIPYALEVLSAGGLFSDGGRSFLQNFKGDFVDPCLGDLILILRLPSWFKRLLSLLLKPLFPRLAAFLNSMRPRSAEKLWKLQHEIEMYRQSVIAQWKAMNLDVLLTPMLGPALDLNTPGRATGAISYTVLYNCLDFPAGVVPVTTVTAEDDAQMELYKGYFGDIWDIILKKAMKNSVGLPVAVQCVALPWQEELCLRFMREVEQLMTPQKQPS
The experiment in a line: FAAH enzyme assay, Ki (Dixon plot), rat FAAH.

The next assay deals with T2, rat FAAH (Rattus norvegicus, UniProt P97612).
T2 construct: made in house; host or cells: E. coli
T2 sequence (P97612 1-579): T1 sequence (P97612 1-579)
The experiment in a line: FAAH inhibition IC50, rat. To be noted: inhibition at 3-5 test compound concentrations. The protocol:
(§1) Enzyme assays were performed at 20-23° C. with purified recombinant rat FAAH expressed in E. coli (Patricelli, M. P.; Lashuel, H. A.; et al. Biochemistry 1998, 37, 15177-15187) (unless indicated otherwise) or with solubilized COS-7 membrane extracts from cells transiently transfected with human FAAH cDNA (Giang, D. K.; Cravatt, B. F. Proc. Natl. Acad. Sci. U.S.A. 1997, 94, 2238-2242) (where specifically indicated) in a buffer of 125 mM Tris/1 mM EDTA/0.2% glycerol/0.02% Triton X-100/0.4 mM Hepes, pH 9.0 buffer (Patricelli, M. P.; Patterson, J. P.; et al. Bioorg. Med. Chem. Lett. 1998, 8, 613-618). […] NT=no data available.
(§2) IC50 values were determined from the inhibition observed at 3-5 different test compound concentrations (from three or more trials at each concentration) using the formula IC50=[I]/[K0/Ki)-1], where K0 is the control reaction rate without inhibitor and Ki is the rate with test compound at concentration [I] (Conde-Frieboes, K. et al. J. Am. Chem. Soc. 1996, 118, 5519-5525). NT=no data available.

In another assay the target is T3, FAAH (Homo sapiens, UniProt O00519).
T3 sequence (O00519 1-579): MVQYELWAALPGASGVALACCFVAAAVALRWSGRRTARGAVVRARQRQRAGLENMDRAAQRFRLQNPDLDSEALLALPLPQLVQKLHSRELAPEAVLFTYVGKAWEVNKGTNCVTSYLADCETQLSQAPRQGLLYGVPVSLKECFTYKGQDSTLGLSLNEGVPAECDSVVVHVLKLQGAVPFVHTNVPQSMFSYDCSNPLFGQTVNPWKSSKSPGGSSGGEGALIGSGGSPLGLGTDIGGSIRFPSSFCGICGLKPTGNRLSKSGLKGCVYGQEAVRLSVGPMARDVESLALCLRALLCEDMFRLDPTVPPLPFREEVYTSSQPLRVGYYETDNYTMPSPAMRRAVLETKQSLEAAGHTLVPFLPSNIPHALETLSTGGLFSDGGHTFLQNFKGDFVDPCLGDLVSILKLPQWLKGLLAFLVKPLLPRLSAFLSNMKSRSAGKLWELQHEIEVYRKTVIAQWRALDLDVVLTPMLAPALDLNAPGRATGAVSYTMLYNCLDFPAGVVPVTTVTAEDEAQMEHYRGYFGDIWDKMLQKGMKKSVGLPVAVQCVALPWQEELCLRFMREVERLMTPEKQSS
The experiment in a line: FAAH inhibition IC50, human. Details: expressed in transfected cells; host or cells: COS-7 (transient transfection), solubilized membrane extracts. To be noted: inhibition at 3-5 test compound concentrations. As for the experimental part: as §1, §2

Setting [2] is: purified recombinant rat FAAH expressed in E. coli, 14C-oleamide hydrolysis, pH 9.0, 20-23° C.

In the case of `COC(=O)c1cccc(-c2cnc(C(=O)CCc3ccc(-c4ccc(CN5CCSCC5)cc4)cc3)o2)n1` [Example 36, 6-{2-[3-(4′-Thiomorpholin-4-ylmethyl-biphenyl-4-yl)-propionyl]-oxazol-5-yl}-pyridine-2-carboxylic acid methyl ester], the Ki in assay [1] (setting [2]) worked out at 5 nM. In the case of `O=C(CCc1ccc(Nc2ccccc2)cc1)c1ncc(-c2ccccn2)o1` [Example 11g, 1-Oxo-1-[5-(2-pyridyl)oxazol-2-yl]-3-(4-(phenylamino)phenyl)-propane], the Ki in assay [1] (setting [2]) came to 2 nM.

Consider `O=C(CCc1ccc(-c2ccccc2)cc1)c1ncc(-c2cccnc2)o1` [Example 31, 3-Biphenyl-4-yl-1-(5-pyridin-3-yl-oxazol-2-yl)-propan-1-one], for which the Ki in assay [1] (setting [2]) was 1.1 nM. For the same compound, the IC50 came to 2 nM against rat FAAH and 22 nM against FAAH. The like results for `O=C(O)c1ccc(-c2cnc(C(=O)CCc3ccc(Oc4ccccc4)cc3)o2)nc1` [Example 15, 6-{2-[3-(4-Phenoxy-phenyl)-propionyl]-oxazol-5-yl}-nicotinic acid] were, in that order, 33 nM, 0.2 nM and 0.3 nM. The corresponding values for `O=C(O)c1cc(-c2cnc(C(=O)CCc3ccc(-c4ccccc4)cc3)o2)ccn1` [Example 29, 4-[2-(3-Biphenyl-4-yl-propionyl)-oxazol-5-yl]-pyridine-2-carboxylic acid] are 50 nM, 3 nM and 7 nM. As to `O=C(O)c1ccc(-c2cnc(C(=O)CCc3ccc(-c4ccccc4)cc3)o2)nc1` [Example 25, 6-[2-(3-Biphenyl-4-yl-propionyl)-oxazol-5-yl]-nicotinic acid], in assay [1] (pH 9), the Ki was 14 nM. The IC50 against rat FAAH stood at 0.3 nM; against FAAH, 0.5 nM. For the compound `O=C(O)c1cccc(-c2cnc(C(=O)CCc3ccc(-c4ccc(CN5CCCC5)cc4)cc3)o2)n1` [Example 43, 6-{2-[3-(4′-Pyrrolidin-1-ylmethyl-biphenyl-4-yl)-propionyl]-oxazol-5-yl}-pyridine-2-carboxylic acid], in assay [1] (setting [2]), the Ki came to 127 nM. Take `COC(=O)c1cccc(-c2cnc(C(=O)CCc3ccc(-c4ccc(CN5CCCCC5)cc4)cc3)o2)n1` [Example 34, 6-{2-[3-(4′-Piperidin-1-ylmethyl-biphenyl-4-yl)-propionyl]-oxazol-5-yl}-pyridine-2-carboxylic acid methyl ester]: in assay [1] (setting [2]), the Ki worked out at 9 nM. `O=C(CCc1cccc(OCc2ccccc2)c1)c1ncc(-c2ccccn2)o1` [Example 11c, 1-Oxo-1-[5-(2-pyridyl)oxazol-2-yl]-3-(3-(benzyloxy)phenyl)-propane]: the Ki in assay [1] (setting [2]) was 25 nM.

For `O=C(COc1ccc(OCc2ccccc2)cc1)c1ncc(-c2ccccn2)o1` [Example 11b, 2-(4-(Benzyloxy)phenoxy)-1-(5-(pyridin-2-yl)oxazol-2-yl)ethanone], the Ki in assay [1] (setting [2]) was found to be 5300 nM. Turning to `O=C(CCc1ccc(COc2ccccc2)cc1)c1ncc(-c2cccc(-c3nnn[nH]3)n2)o1` [Example 47, 3-(4-Phenoxymethyl-phenyl)-1-{5-[6-(1H-tetrazol-5-yl)-pyridin-2-yl]-oxazol-2-yl}-propan-1-one], the Ki in assay [1] (setting [2]) turned out to be 21 nM. As to `COC(=O)c1cccc(-c2cnc(C(=O)CCc3ccc(Oc4ccccc4)cc3)o2)n1` [Example 12, 6-{2-[3-(4-Phenoxy-phenyl)-propionyl]-oxazol-5-yl}-pyridine-2-carboxylic acid methyl ester], in assay [1] (setting [2]), the Ki stood at 13 nM. Further, the IC50 against rat FAAH worked out at 5 nM; on FAAH, 2 nM. On to `COC(=O)c1ccc(-c2cnc(C(=O)CCc3ccc(-c4ccccc4)cc3)o2)cn1` [Example 32, 5-[2-(3-Biphenyl-4-yl-propionyl)-oxazol-5-yl]pyridine-2-carboxylic acid methyl ester], for which the Ki in assay [1] (setting [2]) was 0.6 nM. Also, the IC50 turned out to be 17 nM on rat FAAH and 500 nM at FAAH. With `O=C(O)c1cccc(-c2cnc(C(=O)CCc3ccc(Oc4ccccc4)cc3)o2)n1` [Example 14, 6-{2-[3-(4-Phenoxy-phenyl)-propionyl]-oxazol-5-yl}-pyridine-2-carboxylic acid], in assay [1] (setting [2]), the Ki was 65 nM. The IC50 on rat FAAH was determined as 1.5 nM; against FAAH it was 2.7 nM. For `O=C(CCc1ccc(Sc2ccccc2)cc1)c1ncc(-c2ccccn2)o1` [Example 11i, 1-Oxo-1-[5-(2-pyridyl)oxazol-2-yl]-3-(4-(phenylthio)phenyl)propane], the Ki in assay [1] (setting [2]) amounted to 2.2 nM. Still for that read-out and setting: the value for `COC(=O)c1cccc(-c2cnc(C(=O)CCc3ccc(-c4ccc(CN(C)C)cc4)cc3)o2)n1` [Example 38] was 29 nM. Same read-out and setting: for `O=C(O)c1cccc(-c2cnc(C(=O)CCc3ccc(-c4ccc(CN5CCCCC5)cc4)cc3)o2)n1` [Example 40, 6-{2-[3-(4′-Piperidin-1-ylmethyl-biphenyl-4-yl)-propionyl]-oxazol-5-yl}-pyridine-2-carboxylic acid] the value was 44 nM. Take `CN1CCN(Cc2ccc(-c3ccc(CCC(=O)c4ncc(-c5cccc(C(=O)O)n5)o4)cc3)cc2)CC1` [Example 45, 6-(2-{3-[4′-(4-Methyl-piperazin-1-ylmethyl)-biphenyl-4-yl]-propionyl}-oxazol-5-yl)-pyridine-2-carboxylic acid]: the Ki in assay [1] (setting [2]) was found to be 1230 nM. Consider `O=C(CCc1ccc(Cc2ccccc2)cc1)c1ncc(-c2ccccn2)o1` [Example 11h, 1-Oxo-1-[5-(2-pyridyl)oxazol-2-yl]-3-(4-benzylphenyl)propane], for which, in assay [1] (setting [2]), the Ki was determined as 3.2 nM. Still for that read-out and setting: the value for `O=C(O)c1cccc(-c2cnc(C(=O)CCc3ccc(-c4ccc(CN5CCSCC5)cc4)cc3)o2)n1` [Example 42, 6-{2-[3-(4′-Thiomorpholin-4-ylmethyl-biphenyl-4-yl)-propionyl]-oxazol-5-yl}-pyridine-2-carboxylic acid] was 28 nM; that for `COC(=O)c1cccc(-c2cnc(C(=O)CCc3ccc(-c4ccc(CN5CCCC5)cc4)cc3)o2)n1` [Example 37] was 18 nM; that for `O=C(CCc1ccc(Oc2ccccc2)cc1)c1ncc(-c2ccccn2)o1` [Example 11f, 1-Oxo-1-[5-(2-pyridyl)oxazol-2-yl]-3-(4-phenoxyphenyl)propane] was 3.4 nM. Take `N#Cc1cccc(-c2cnc(C(=O)CCc3ccc(COc4ccccc4)cc3)o2)n1` [Example 48]: the Ki in assay [1] (setting [2]) is 3 nM.

With `CN(C)Cc1ccc(-c2ccc(CCC(=O)c3ncc(-c4cccc(C(=O)O)n4)o3)cc2)cc1` [Example 44, 6-{2-[3-(4′-Dimethylaminomethyl-biphenyl-4-yl)-propionyl]-oxazol-5-yl}-pyridine-2-carboxylic acid], in assay [1] (setting [2]), the Ki was 150 nM. The same measure, in the same setting: the value for `O=C(COc1cccc(OCc2ccccc2)c1)c1ncc(-c2ccccn2)o1` [Example 11d, 2-(3-(Benzyloxy)phenoxy)-1-(5-(pyridin-2-yl)oxazol-2-yl)ethanone] was 2100 nM. As for `COC(=O)c1cccc(-c2cnc(C(=O)CCc3ccc(-c4ccc(CN5CCN(C)CC5)cc4)cc3)o2)n1` [Example 39, 6-(2-{3-[4′-(4-Methyl-piperazin-1-ylmethyl)-biphenyl-4-yl]-propionyl}-oxazol-5-yl)-pyridine-2-carboxylic acid methyl ester], the Ki in assay [1] (setting [2]) amounted to 200 nM.

These data come from patent US8372823B2, “Tetracyclic inhibitors of fatty acid amide hydrolase” (The Scripps Research Institute, priority 2007, dated 2013).
